# Measurements from US20160318987A1 (MEDIMMUNE LIMITED, priority 2013, published 2016).
# Where a SMILES comes first, the peptide text is derived from it. [ ]: non-standard residue; d: D form. Aib = CC(C)(N)C(=O)O
# Tests used:
# Assay type in all cases: cell-based
# Conditions in all cases: n = 2
# hGLP-1R = molecular target: T1, hGLP-1R (Homo sapiens, UniProt P43220); test: cAMP functional assay, cells expressing human GLP-1 receptor (primary assay)
# T1 construct: expressed in transfected cells
# T1 sequence (P43220 24-463): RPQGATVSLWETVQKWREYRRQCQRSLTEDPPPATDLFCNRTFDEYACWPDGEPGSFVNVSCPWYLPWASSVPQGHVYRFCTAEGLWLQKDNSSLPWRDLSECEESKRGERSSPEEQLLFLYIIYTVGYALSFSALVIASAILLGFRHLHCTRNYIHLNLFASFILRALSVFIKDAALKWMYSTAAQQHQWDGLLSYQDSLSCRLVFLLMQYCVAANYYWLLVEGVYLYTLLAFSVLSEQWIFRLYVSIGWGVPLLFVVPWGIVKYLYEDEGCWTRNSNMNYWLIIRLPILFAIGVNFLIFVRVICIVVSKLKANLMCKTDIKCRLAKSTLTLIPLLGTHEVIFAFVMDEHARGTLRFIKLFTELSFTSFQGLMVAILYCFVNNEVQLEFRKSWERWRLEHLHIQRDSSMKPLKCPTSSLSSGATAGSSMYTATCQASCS
# hGluc-R = molecular target: T2, hGluc-R (Homo sapiens, UniProt P47871); test: cAMP functional assay, cells expressing human glucagon receptor (primary assay)
# T2 construct: expressed in transfected cells
# T2 sequence (P47871 26-477): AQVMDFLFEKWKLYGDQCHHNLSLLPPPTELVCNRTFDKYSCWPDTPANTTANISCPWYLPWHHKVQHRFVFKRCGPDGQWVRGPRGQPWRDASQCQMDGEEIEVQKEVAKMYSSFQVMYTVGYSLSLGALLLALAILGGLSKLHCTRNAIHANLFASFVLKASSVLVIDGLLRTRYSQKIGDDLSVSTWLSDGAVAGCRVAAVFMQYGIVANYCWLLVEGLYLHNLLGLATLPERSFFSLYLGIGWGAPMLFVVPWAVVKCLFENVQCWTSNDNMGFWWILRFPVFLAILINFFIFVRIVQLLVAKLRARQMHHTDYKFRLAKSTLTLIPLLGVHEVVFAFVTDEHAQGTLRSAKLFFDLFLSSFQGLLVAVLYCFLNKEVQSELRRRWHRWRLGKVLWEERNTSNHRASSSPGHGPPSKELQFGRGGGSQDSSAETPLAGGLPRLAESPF
# Description: The biological activities/receptor potencies of the synthetic GLP-1 peptides described herein are suitably tested for biological activity, e.g., stimulation of one or more cellular receptor responses. Stable cell lines expressing human, mouse, rat, or dog GLP-1 receptor (GLP-1R), glucagon receptor (GCGR) or glucose-dependent insulinotropic peptide (gastric inhibitory polypeptide) receptor (GIPR) are generated in HEK293 cells or CHO cells by standard methods.
# cAMP assays were performed using “assay buffer”: Assay Buffer: 0.1% BSA (Sigma #A3059) in HBSS (Sigma #H8264) with 25 mM HEPES, pH 7.4 and containing 0.5 mM IBMX (Sigma #17018).
# Low protein binding 384-well plates (Greiner #781280) are used to perform eleven 1 in 5 serial dilutions of test samples which are made in assay buffer. All sample dilutions are made in duplicate.
# A frozen cryo-vial of cells expressing the receptor of interest is thawed rapidly in a water-bath, transferred to pre-warmed assay buffer and spun at 240× g for 5 minutes. Cells are re-suspended in assay buffer at a batch-dependent optimized concentration (e.g. hGCGR cells at 2×10^5 cells/ml, hGLP-1R and hGIPR cells at 1×10^5 cells /ml).
# From the dilution plate, a 5 μL replica is stamped onto a black shallow-well u-bottom 384-well plate (Corning #3676). To this, 5 μL cell suspension is added and the plates incubated at room temperature for 30 minutes.
# cAMP levels are measured using a commercially available cAMP dynamic 2 HTRF kit (Cisbio, Cat #62AM4PEJ), following the two step protocol as per manufacturer's recommendations. In brief; anti-cAMP cryptate (donor fluorophore) and cAMP-d2 (acceptor fluorophore) are made up separately by diluting each 1/20 in conjugate & lysis buffer provided in the kit. 5 μL anti-cAMP cryptate is added to all wells of the assay plate, and 5 μL cAMP-d2 is added to all wells except non-specific binding (NSB) wells, to which conjugate and lysis buffer are added. Plates are incubated at room temperature for one hour and then read on an Envision (Perkin Elmer) using excitation wavelength of 320 nm and emission wavelengths of 620 nm & 665 nm. EC50 values of the synthetic peptides determined in cAMP assays are then determined.
# hGIP-R = molecular target: T3, hGIP-R (Homo sapiens, UniProt P48546); test: cAMP functional assay, cells expressing human GIP receptor (primary assay)
# T3 construct: expressed in transfected cells
# T3 sequence (P48546 22-466): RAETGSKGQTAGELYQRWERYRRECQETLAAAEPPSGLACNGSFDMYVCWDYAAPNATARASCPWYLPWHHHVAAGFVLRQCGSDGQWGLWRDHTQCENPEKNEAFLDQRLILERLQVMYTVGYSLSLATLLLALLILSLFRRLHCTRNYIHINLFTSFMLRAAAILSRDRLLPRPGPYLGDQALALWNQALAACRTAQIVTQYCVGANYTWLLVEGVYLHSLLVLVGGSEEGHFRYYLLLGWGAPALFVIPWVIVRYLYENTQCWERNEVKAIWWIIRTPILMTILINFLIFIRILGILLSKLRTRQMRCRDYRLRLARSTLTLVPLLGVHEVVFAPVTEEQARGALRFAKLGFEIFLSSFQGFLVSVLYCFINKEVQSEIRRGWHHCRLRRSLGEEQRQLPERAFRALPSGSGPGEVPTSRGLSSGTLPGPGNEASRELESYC
smiles,measurement,setting,value
"CC[C@H](C)[C@H](NC(=O)[C@H](Cc1ccccc1)NC(=O)[C@H](CCC(=O)O)NC(=O)[C@H](CCCCN)NC(=O)[C@H](C)NC(=O)[C@H](C)NC(=O)[C@H](CCC(N)=O)NC(=O)CNC(=O)[C@H](CCC(=O)O)NC(=O)[C@H](CC(C)C)NC(=O)C(C)(C)NC(=O)[C@H](CO)NC(=O)[C@H](CO)NC(=O)[C@@H](NC(=O)[C@H](CC(=O)O)NC(=O)[C@H](CO)NC(=O)[C@@H](NC(=O)[C@H](Cc1ccccc1)NC(=O)[C@@H](NC(=O)CNC(=O)[C@H](CCC(=O)O)NC(=O)C(C)(C)NC(=O)[C@@H](N)Cc1c[nH]cn1)[C@@H](C)O)[C@@H](C)O)C(C)C)C(=O)N[C@@H](C)C(=O)N[C@@H](Cc1c[nH]c2ccccc12)C(=O)N[C@@H](CC(C)C)C(=O)N[C@H](C(=O)N[C@@H](CCCCN)C(=O)NCC(=O)N[C@@H](CCCNC(=N)N)C(N)=O)C(C)C [SEQ ID NO: 10, H-(Aib)^2-EGT^5 FTSDV^10 SS-(Aib)^13-LE^15 GQAAK^20 EFIAW^25 LVKGR^30] (H-H[Aib]EGTFTSDVSS[Aib]LEGQAAKEFIAWLVKGR-NH2)",EC50,hGLP-1R,0.0437 nM
same,EC50,hGluc-R,131 nM
same,EC50,hGIP-R,131 nM
"CC[C@H](C)[C@H](NC(=O)[C@](C)(Cc1ccccc1)NC(=O)[C@H](CCC(=O)O)NC(=O)[C@H](CCCCN)NC(=O)[C@H](C)NC(=O)[C@H](C)NC(=O)[C@H](CCC(N)=O)NC(=O)CNC(=O)[C@H](CCC(=O)O)NC(=O)[C@H](CC(C)C)NC(=O)[C@H](Cc1ccc(O)cc1)NC(=O)[C@H](CO)NC(=O)[C@H](CO)NC(=O)[C@@H](NC(=O)[C@H](CC(=O)O)NC(=O)[C@H](CO)NC(=O)[C@@H](NC(=O)[C@H](Cc1ccccc1)NC(=O)[C@@H](NC(=O)CNC(=O)[C@H](CCC(=O)O)NC(=O)C(C)(C)NC(=O)[C@@H](N)Cc1c[nH]cn1)[C@@H](C)O)[C@@H](C)O)C(C)C)C(=O)N[C@@H](C)C(=O)N[C@@H](Cc1c[nH]c2ccccc12)C(=O)N[C@@H](CC(C)C)C(=O)N[C@H](C(=O)N[C@@H](CCCCN)C(=O)NCC(=O)N[C@@H](CCCNC(=N)N)C(N)=O)C(C)C [SEQ ID NO: 11, H-(Aib)^2-EGT^5 FTSDV^10 SSYLE^15 GQAAK^20 E-(α-MeF)^22IAW^25 LVKGR^30]",EC50,hGLP-1R,0.0547 nM
same,EC50,hGluc-R,153 nM
same,EC50,hGIP-R,153 nM
"CC[C@H](C)[C@H](NC(=O)C(C)(C)NC(=O)[C@H](CCC(=O)O)NC(=O)[C@H](CCCCN)NC(=O)[C@H](C)NC(=O)[C@H](C)NC(=O)[C@H](CCC(N)=O)NC(=O)CNC(=O)[C@H](CCC(=O)O)NC(=O)[C@H](CC(C)C)NC(=O)[C@H](Cc1ccc(O)cc1)NC(=O)[C@H](CO)NC(=O)[C@H](CO)NC(=O)[C@@H](NC(=O)[C@H](CC(=O)O)NC(=O)[C@H](CO)NC(=O)[C@@H](NC(=O)[C@H](Cc1ccccc1)NC(=O)[C@@H](NC(=O)CNC(=O)[C@H](CCC(=O)O)NC(=O)C(C)(C)NC(=O)[C@@H](N)Cc1c[nH]cn1)[C@@H](C)O)[C@@H](C)O)C(C)C)C(=O)N[C@@H](C)C(=O)N[C@@H](Cc1c[nH]c2ccccc12)C(=O)N[C@@H](CC(C)C)C(=O)N[C@H](C(=O)N[C@@H](CCCCN)C(=O)NCC(=O)N[C@@H](CCCNC(=N)N)C(N)=O)C(C)C [SEQ ID NO: 12, H-(Aib)^2-EGT^5 FTSDV^10 SSYLE^15 GQAAK^20 E-(Aib)^22IAW^25 LVKGR^30] (H-H[Aib]EGTFTSDVSSYLEGQAAKE[Aib]IAWLVKGR-NH2)",EC50,hGLP-1R,2.58 nM
same,EC50,hGluc-R,147 nM
same,EC50,hGIP-R,147 nM
"CC[C@H](C)[C@H](NC(=O)[C@H](Cc1ccccc1)NC(=O)[C@H](CCC(=O)O)NC(=O)[C@H](CCCCN)NC(=O)[C@H](C)NC(=O)[C@H](C)NC(=O)[C@H](CCC(N)=O)NC(=O)CNC(=O)[C@H](CCC(=O)O)NC(=O)[C@H](CC(C)C)NC(=O)[C@H](Cc1ccc(O)cc1)NC(=O)[C@H](CO)NC(=O)[C@H](CO)NC(=O)[C@@H](NC(=O)[C@H](CC(=O)O)NC(=O)[C@H](CO)NC(=O)[C@@H](NC(=O)[C@H](Cc1ccccc1)NC(=O)[C@@H](NC(=O)CNC(=O)[C@H](CCC(=O)O)NC(=O)C(C)(C)NC(=O)[C@@H](N)Cc1c[nH]cn1)[C@@H](C)O)[C@@H](C)O)C(C)C)C(=O)N[C@@H](C)C(=O)N[C@@](C)(Cc1c[nH]c2ccccc12)C(=O)N[C@@H](CC(C)C)C(=O)N[C@H](C(=O)N[C@@H](CCCCN)C(=O)NCC(=O)N[C@@H](CCCNC(=N)N)C(N)=O)C(C)C [SEQ ID NO: 13, H-(Aib)^2-EGT^5 FTSDV^10 SSYLE^15 GQAAK^20 EFIA-(α-MeW)^25 LVKGR^30]",EC50,hGLP-1R,0.026 nM
same,EC50,hGluc-R,164 nM
same,EC50,hGIP-R,164 nM
"CC[C@H](C)[C@H](NC(=O)[C@H](Cc1ccccc1)NC(=O)[C@H](CCC(=O)O)NC(=O)[C@H](CCCCN)NC(=O)[C@H](C)NC(=O)[C@H](C)NC(=O)[C@H](CCC(N)=O)NC(=O)CNC(=O)[C@H](CCC(=O)O)NC(=O)[C@H](CC(C)C)NC(=O)[C@H](Cc1ccc(O)cc1)NC(=O)[C@H](CO)NC(=O)[C@H](CO)NC(=O)[C@@H](NC(=O)[C@H](CC(=O)O)NC(=O)[C@H](CO)NC(=O)[C@@H](NC(=O)[C@H](Cc1ccccc1)NC(=O)[C@@H](NC(=O)CNC(=O)[C@H](CCC(=O)O)NC(=O)C(C)(C)NC(=O)[C@@H](N)Cc1c[nH]cn1)[C@@H](C)O)[C@@H](C)O)C(C)C)C(=O)N[C@@H](C)C(=O)N[C@@](C)(Cc1ccccc1)C(=O)N[C@@H](CC(C)C)C(=O)N[C@H](C(=O)N[C@@H](CCCCN)C(=O)NCC(=O)N[C@@H](CCCNC(=N)N)C(N)=O)C(C)C [SEQ ID NO: 14, H-(Aib)^2-EGT^5 FTSDV^10 SSYLE^15 GQAAK^20 EFIA-(α-MeF)^25 LVKGR^30]",EC50,hGLP-1R,0.0196 nM
same,EC50,hGluc-R,170 nM
same,EC50,hGIP-R,170 nM
"CC[C@H](C)[C@H](NC(=O)[C@H](Cc1ccccc1)NC(=O)[C@H](CCC(=O)O)NC(=O)[C@H](CCCCN)NC(=O)[C@H](C)NC(=O)[C@H](C)NC(=O)[C@H](CCC(N)=O)NC(=O)CNC(=O)[C@H](CCC(=O)O)NC(=O)[C@H](CC(C)C)NC(=O)[C@H](Cc1ccc(O)cc1)NC(=O)[C@H](CO)NC(=O)[C@H](CO)NC(=O)[C@@H](NC(=O)[C@H](CC(=O)O)NC(=O)[C@H](CO)NC(=O)[C@@H](NC(=O)[C@H](Cc1ccccc1)NC(=O)[C@@H](NC(=O)CNC(=O)[C@H](CCC(=O)O)NC(=O)C(C)(C)NC(=O)[C@@H](N)Cc1c[nH]cn1)[C@@H](C)O)[C@@H](C)O)C(C)C)C(=O)N[C@@H](C)C(=O)NC(C)(C)C(=O)N[C@@H](CC(C)C)C(=O)N[C@H](C(=O)N[C@@H](CCCCN)C(=O)NCC(=O)N[C@@H](CCCNC(=N)N)C(N)=O)C(C)C [SEQ ID NO: 15, H-(Aib)^2-EGT^5 FTSDV^10 SSYLE^15 GQAAK^20 EFIA-(Aib)^25 LVKGR^30]",EC50,hGLP-1R,0.0465 nM
same,EC50,hGluc-R,177 nM
same,EC50,hGIP-R,177 nM
"CC[C@H](C)[C@H](NC(=O)[C@H](Cc1ccccc1)NC(=O)[C@H](CCC(=O)O)NC(=O)[C@](C)(CCCCN)NC(=O)[C@H](C)NC(=O)[C@H](C)NC(=O)[C@H](CCC(N)=O)NC(=O)CNC(=O)[C@H](CCC(=O)O)NC(=O)[C@H](CC(C)C)NC(=O)[C@H](Cc1ccc(O)cc1)NC(=O)[C@H](CO)NC(=O)[C@H](CO)NC(=O)[C@@H](NC(=O)[C@H](CC(=O)O)NC(=O)[C@H](CO)NC(=O)[C@@H](NC(=O)[C@H](Cc1ccccc1)NC(=O)[C@@H](NC(=O)CNC(=O)[C@H](CCC(=O)O)NC(=O)C(C)(C)NC(=O)[C@@H](N)Cc1c[nH]cn1)[C@@H](C)O)[C@@H](C)O)C(C)C)C(=O)N[C@@H](C)C(=O)N[C@@H](Cc1c[nH]c2ccccc12)C(=O)N[C@@H](CC(C)C)C(=O)N[C@H](C(=O)N[C@@H](CCCCN)C(=O)NCC(=O)N[C@@H](CCCNC(=N)N)C(N)=O)C(C)C [SEQ ID NO: 20, H-(Aib)^2-EGT^5 FTSDV^10 SSYLE^15 GQAA-(α-MeK)^20 EFIAW^25 LVKGR^30]",EC50,hGLP-1R,0.0167 nM
same,EC50,hGluc-R,110 nM
same,EC50,hGIP-R,110 nM
